“Also recorded” adds a separate entry of the source.

The first experiment concerns Arabidopsis thaliana cell suspension cultures.
Assay: not given
The conditions noted are these: ADP 1 mM, AMP 1 mM, ATP 1 mM, glucose-6-phosphate 100 mM, boiled apyrase 50 units/ml, boiled hexokinase 200 units/ml with 100 mM glucose. In kind it is cell-based. As for the experimental part: A. thaliana cell cultures were grown as described in example 1. Aliquots of the cell suspension (1.5 mL) were treated with a final concentration of 0, 20, 50, or 100 units/mL of apyrase. […] The dead cells had become buoyant and adhered to the walls of the vials, forming a ring just above the edge of the swirling medium. The ring of cells was sometimes dislodged and fell into the medium, resulting in apyrase-treated cultures having flakes of dead cells at the bottom of the vials.
To quantify the effect of apyrase on cell viability, the ability of the cells to grow and multiply subsequent to treatment was measured after diluting the cultures by over 30 times in fresh medium not containing any additives. This was achieved by transferring the cells treated for 3 days to 50 mL of fresh growth medium and allowing them to grow for a further 4 days. At the end of this period, triplicate 1 mL aliquots were sampled from the cultures and the volume of the cells was measured and expressed as a percentage of the culture volume. The method used to determine the packed cell volume was as follows: 1 mL cell culture aliquots were placed in 1.5 mL microfuge tubes and the cells gently compacted by centrifuging (1000 rpm., 10 minutes) in a swing-out rotor (Grundrotor 11030; Sigma laborzentrifugen GmbH, Oestrode, Germany). The level of the cells was marked on the wall of the tube and the volume of cells determined by measuring the volume of water needed to fill the tube to the marked level. The packed cell volume was expressed as the volume occupied by cells as a percentage of 1000 μL.
In each case the error bars represent the standard deviation.
`Nc1ncnc2c1ncn2[C@@H]1O[C@H](COP(=O)(O)O)[C@@H](O)[C@H]1O` [AMP]: the “cell viability / cell death, in words” value is listed as “did not result in any change in cell viability”.

In the case of `O=C[C@H](O)[C@@H](O)[C@H](O)[C@H](O)COP(=O)(O)O` [glucose-6-phosphate], the “cell viability / cell death, in words” value is listed as “did not affect cell viability”.

The next experiment relates to Arabidopsis plants. Put plainly: Foliar spray application, herbicidal activity. The experiment is classed as in vivo. The conditions noted are these: 2 mL spray, 5 mM active ingredient, 0.02% (v/v) Tween 20, pH 6.7. As for the experimental part: The inventors tested a range of compounds for their potential herbicidal activity. These consisted of several nonhydrolysable ATP analogues as well as nonhydrolysable analogues of GTP, another nucleotide triphosphate. Arabidopsis plants were grown hydroponically for 2 weeks as described in Example 6B. These plants, still attached to the polyurethane foam discs, were then transferred to phytatrays that contained sand. Plants grown under high humidity conditions, achieved in these enclosed phytatrays, tend to have poor or no development of the waxy cuticle and so are ideal for spray application of solutions with the aid of common surfactants like Tween 20. The plants in each tray were sprayed with 2 mL of an aqueous solution adjusted to pH 6.7 with KOH and containing 5 mM active ingredient and 0.02% (v/v) Tween 20. Control plants were sprayed with the same solution containing only Tween 20 but no active ingredient.
Turning to `Nc1ncnc2c1ncn2[C@@H]1O[C@H](COP(=O)(O)OP(=O)(O)O)[C@@H](O)[C@H]1O` [ADP, adenosine 5′-diphosphate], the “Effects on Arabidopsis plants after foliar application” value (shortened to “Effects on Arabidopsis plants”) is “not phytotoxic and None”.

As for `Nc1ncnc2c1ncn2[C@@H]1O[C@H](COP(=O)(O)OP(=O)(O)NP(=O)(O)O)[C@@H](O)[C@H]1O` [AMP-PNP, adenosine 5′-(β,γ-imido)triphosphate], the “Effects on Arabidopsis plants” value was “had herbicidal activity; also recorded: Phytotoxic”.

Turning to `Nc1ncnc2c1ncn2[C@@H]1O[C@H](COP(=O)(O)OP(=O)(O)OP(O)(O)=S)[C@@H](O)[C@H]1O` [ATP-γ-S, adenosine 5′-(γ-thio)triphosphate], the “Effects on Arabidopsis plants” value is reported as “had herbicidal activity; also recorded: Phytotoxic”.

As for `Nc1nc2c(ncn2[C@@H]2O[C@H](COP(=O)(O)OP(=O)(O)OP(=O)(O)O)[C@@H](O)[C@H]2O)c(=O)[nH]1` [GTP, guanosine 5′-triphosphate], the “Effects on Arabidopsis plants” value was “does not and None”.

With `Nc1nc2c(ncn2[C@@H]2O[C@H](COP(=O)(O)OP(=O)(O)OP(O)(O)=S)[C@@H](O)[C@H]2O)c(=O)[nH]1` [GTP-γ-S, guanosine 5′-(γ-thio)triphosphate], the “Effects on Arabidopsis plants” value is given as “has herbicidal properties; also recorded: Phytotoxic”.

For the molecule `[Na+].[Na+].[Na+].[O-]P([O-])([O-])=S` [NaPO3S, sodium thiophosphate], the “Effects on Arabidopsis plants” value is “did not cause death and None”.

The values above are taken from US20060265776A1, “Viability” (priority 2003, published 2006).
